ChEMBL document CHEMBL3885881, “DrugMatrix”

Organism: Rattus norvegicus
Experiment: DrugMatrix - Regimen: Daily Repeat
Format: toxicity, organism-based, Sprague-Dawley
Design: regimen Daily Repeat, gender Male, age 6-8 weeks
Conditions: in vivo, sc, route subcutaneous, […]; for ABSOLUTE BASOPHIL / ABSOLUTE EOSINOPHIL / ABSOLUTE LYMPHOCYTE / ABSOLUTE MONOCYTE / ABSOLUTE SEGMENTED NEUTROPHIL / BASOPHIL / EOSINOPHIL / ERYTHROCYTE COUNT / HEMATOCRIT / HEMOGLOBIN / LEUKOCYTE COUNT / LYMPHOCYTE / MEAN CORPUSCULAR HEMOGLOBIN / MEAN CORPUSCULAR HEMOGLOBIN CONCENTRATION / MEAN CORPUSCULAR VOLUME / MONOCYTE / NEUTROPHIL / NUCLEATED RED BLOOD CELLS / PLATELET COUNT: tissue Blood; for ALANINE AMINOTRANSFERASE / ALBUMIN / ALKALINE PHOSPHATASE / ASPARTATE AMINOTRANSFERASE / BLOOD UREA NITROGEN / CARBON DIOXIDE / CHLORIDE / CHOLESTEROL / CREATINE PHOSPHOKINASE / CREATININE / GLUCOSE / LACTATE DEHYDROGENASE / LIPASE / PHOSPHORUS / POTASSIUM / SODIUM / TOTAL BILIRUBIN / TOTAL PROTEIN / URIC ACID: tissue Plasma
[1] = 47.4 mg/kg, 72 h, dose level Low, time 3 day
[2] = 47.4 mg/kg, 120 h, dose level Low, time 5 day
[3] = 474 mg/kg, 72 h, dose level High, time 3 day
[4] = 474 mg/kg, 120 h, dose level High, time 5 day

## O=C(O)C(Cl)(Cl)Cl [TRICHLOROACETIC ACID]
[1]
  ABSOLUTE BASOPHIL: 0 CELLS/uL
  ABSOLUTE EOSINOPHIL: 262.67 CELLS/uL
  ABSOLUTE LYMPHOCYTE: 11309 CELLS/uL
  ABSOLUTE MONOCYTE: 301 CELLS/uL
  ABSOLUTE SEGMENTED NEUTROPHIL: 1027.33 CELLS/uL
  BASOPHIL: 0%
  EOSINOPHIL: 2%
  ERYTHROCYTE COUNT: 5.38 x10E6/uL
  HEMATOCRIT: 34.53%
  HEMOGLOBIN: 12.9 G/DL
  LEUKOCYTE COUNT: 12.9 x10E3/uL
  LYMPHOCYTE: 87.67%
  MEAN CORPUSCULAR HEMOGLOBIN: 24.07 pg
  MEAN CORPUSCULAR HEMOGLOBIN CONCENTRATION: 37.33 G/DL
  MEAN CORPUSCULAR VOLUME: 64.37 fL
  MONOCYTE: 2.33%
  NEUTROPHIL: 8%
  NUCLEATED RED BLOOD CELLS: 0 /100WBC
  PLATELET COUNT: 1349.67 x10E3/uL
  ALANINE AMINOTRANSFERASE: 42.67 u/L
  ALBUMIN: 4.2 G/DL
  ALKALINE PHOSPHATASE: 412.67 u/L
  ASPARTATE AMINOTRANSFERASE: 83.33 u/L
  BLOOD UREA NITROGEN: 15.33 mg/dL
  CARBON DIOXIDE: 25.67 mmol/L
  CHLORIDE: 105.67 MEQ/L
  CHOLESTEROL: 63 mg/dL
  CREATINE PHOSPHOKINASE: 270.33 u/L
  CREATININE: 0.23 mg/dL
  GLUCOSE: 155.33 mg/dL
  LACTATE DEHYDROGENASE: 325.67 u/L
  LIPASE: 8.67 u/L
  PHOSPHORUS: 12.73 mg/dL
  POTASSIUM: 6.4 MEQ/L
  SODIUM: 146.37 MEQ/L
  TOTAL BILIRUBIN: 0.17 mg/dL
  TOTAL PROTEIN: 5.3 G/DL
  URIC ACID: 1.27 mg/dL
[2]
  ABSOLUTE BASOPHIL: 0 CELLS/uL
  ABSOLUTE EOSINOPHIL: 0 CELLS/uL
  ABSOLUTE LYMPHOCYTE: 12836 CELLS/uL
  ABSOLUTE MONOCYTE: 332 CELLS/uL
  ABSOLUTE SEGMENTED NEUTROPHIL: 898.67 CELLS/uL
  BASOPHIL: 0%
  EOSINOPHIL: 0%
  ERYTHROCYTE COUNT: 5.4 x10E6/uL
  HEMATOCRIT: 33.93%
  HEMOGLOBIN: 12.87 G/DL
  LEUKOCYTE COUNT: 14.07 x10E3/uL
  LYMPHOCYTE: 91.33%
  MEAN CORPUSCULAR HEMOGLOBIN: 23.87 pg
  MEAN CORPUSCULAR HEMOGLOBIN CONCENTRATION: 37.93 G/DL
  MEAN CORPUSCULAR VOLUME: 62.87 fL
  MONOCYTE: 2.33%
  NEUTROPHIL: 6.33%
  NUCLEATED RED BLOOD CELLS: 0 /100WBC
  PLATELET COUNT: 1378 x10E3/uL
  ALANINE AMINOTRANSFERASE: 40 u/L
  ALBUMIN: 4.2 G/DL
  ALKALINE PHOSPHATASE: 302.67 u/L
  ASPARTATE AMINOTRANSFERASE: 75.33 u/L
  BLOOD UREA NITROGEN: 20 mg/dL
  CARBON DIOXIDE: 28.33 mmol/L
  CHLORIDE: 105.67 MEQ/L
  CHOLESTEROL: 66.33 mg/dL
  CREATINE PHOSPHOKINASE: 164.33 u/L
  CREATININE: 0.19 mg/dL
  GLUCOSE: 166.33 mg/dL
  LACTATE DEHYDROGENASE: 114 u/L
  LIPASE: 8 u/L
  PHOSPHORUS: 13.1 mg/dL
  POTASSIUM: 6.29 MEQ/L
  SODIUM: 148.4 MEQ/L
  TOTAL BILIRUBIN: 0.17 mg/dL
  TOTAL PROTEIN: 5.63 G/DL
  URIC ACID: 1.6 mg/dL
[3]
  ABSOLUTE BASOPHIL: 0 CELLS/uL
  ABSOLUTE EOSINOPHIL: 47.33 CELLS/uL
  ABSOLUTE LYMPHOCYTE: 16441.33 CELLS/uL
  ABSOLUTE MONOCYTE: 452 CELLS/uL
  ABSOLUTE SEGMENTED NEUTROPHIL: 2492.67 CELLS/uL
  BASOPHIL: 0%
  EOSINOPHIL: 0.33%
  ERYTHROCYTE COUNT: 4.84 x10E6/uL
  HEMATOCRIT: 30.03%
  HEMOGLOBIN: 11.4 G/DL
  LEUKOCYTE COUNT: 19.43 x10E3/uL
  LYMPHOCYTE: 85%
  MEAN CORPUSCULAR HEMOGLOBIN: 23.57 pg
  MEAN CORPUSCULAR HEMOGLOBIN CONCENTRATION: 38.03 G/DL
  MEAN CORPUSCULAR VOLUME: 62.03 fL
  MONOCYTE: 2.33%
  NEUTROPHIL: 12.33%
  NUCLEATED RED BLOOD CELLS: 0.33 /100WBC
  PLATELET COUNT: 1335.33 x10E3/uL
  ALANINE AMINOTRANSFERASE: 56.33 u/L
  ALBUMIN: 3.77 G/DL
  ALKALINE PHOSPHATASE: 300.33 u/L
  ASPARTATE AMINOTRANSFERASE: 95 u/L
  BLOOD UREA NITROGEN: 18.33 mg/dL
  CARBON DIOXIDE: 24.33 mmol/L
  CHLORIDE: 105 MEQ/L
  CHOLESTEROL: 68.67 mg/dL
  CREATINE PHOSPHOKINASE: 418.33 u/L
  CREATININE: 0.19 mg/dL
  GLUCOSE: 142.67 mg/dL
  LACTATE DEHYDROGENASE: 520.33 u/L
  LIPASE: 7.67 u/L
  PHOSPHORUS: 12.23 mg/dL
  POTASSIUM: 6.31 MEQ/L
  SODIUM: 146.47 MEQ/L
  TOTAL BILIRUBIN: 0.2 mg/dL
  TOTAL PROTEIN: 5.27 G/DL
  URIC ACID: 1.37 mg/dL
[4]
  ABSOLUTE BASOPHIL: 0 CELLS/uL
  ABSOLUTE EOSINOPHIL: 102 CELLS/uL
  ABSOLUTE LYMPHOCYTE: 13327 CELLS/uL
  ABSOLUTE MONOCYTE: 456.67 CELLS/uL
  ABSOLUTE SEGMENTED NEUTROPHIL: 2747.67 CELLS/uL
  BASOPHIL: 0%
  EOSINOPHIL: 0.67%
  ERYTHROCYTE COUNT: 5.19 x10E6/uL
  HEMATOCRIT: 33.1%
  HEMOGLOBIN: 12.5 G/DL
  LEUKOCYTE COUNT: 16.63 x10E3/uL
  LYMPHOCYTE: 80%
  MEAN CORPUSCULAR HEMOGLOBIN: 24.07 pg
  MEAN CORPUSCULAR HEMOGLOBIN CONCENTRATION: 37.77 G/DL
  MEAN CORPUSCULAR VOLUME: 63.73 fL
  MONOCYTE: 2.67%
  NEUTROPHIL: 16.67%
  NUCLEATED RED BLOOD CELLS: 0 /100WBC
  PLATELET COUNT: 1546 x10E3/uL
  ALANINE AMINOTRANSFERASE: 55 u/L
  ALBUMIN: 3.33 G/DL
  ALKALINE PHOSPHATASE: 217 u/L
  ASPARTATE AMINOTRANSFERASE: 111.33 u/L
  BLOOD UREA NITROGEN: 13.67 mg/dL
  CARBON DIOXIDE: 23 mmol/L
  CHLORIDE: 109.33 MEQ/L
  CHOLESTEROL: 66 mg/dL
  CREATINE PHOSPHOKINASE: 1000 u/L
  CREATININE: 0.19 mg/dL
  GLUCOSE: 170 mg/dL
  LACTATE DEHYDROGENASE: 160 u/L
  LIPASE: 8 u/L
  PHOSPHORUS: 12.67 mg/dL
  POTASSIUM: 6.26 MEQ/L
  SODIUM: 147.7 MEQ/L
  TOTAL BILIRUBIN: 0.17 mg/dL
  TOTAL PROTEIN: 5.03 G/DL
  URIC ACID: 2.6 mg/dL
